Measured values taken from patent US20140348819A1, “Methods of Treating Cancer” (Dana-Farber Cancer Institute, Inc., priority 2011, published 2014).

Assays:
[1] = system: pERK/pAKT; assay: High-throughput western analysis of pERK/pAKT re-activation by RTK ligands under BRAFi/MEKi; type: cell-based, human; conditions: under BRAFi (PLX4720); after 1 hour of cytokine treatment; six V600E BRAF melanoma cell lines
Description: FIG. 23B is a western blot showing the activation of AKT (phosphorylated AKT, S473) after 1 hour and 24 hours after treatment with HGF, IGF-1 (IGF), and Insulin (INS) in the presence of BRAFi (PLX4720, 2 μM). FIG. 23C is a western blot showing the effect of HGF (25 ng/mL) on MAPK and PI3K/AKT pathway activation (pRAF1, pMEK, pERK, pAKT and pMET) in melanoma cell lines after 24 hours of treatment with 2 μM BRAFi (PLX4720) or 2 μM MEKi (PD184352).
To understand why, of all the RTKs tested, only HGF could induce such a unique primary resistance phenotype, a high-throughput western analysis was used to test the ability of all 22 RTK ligands to re-activate pERK/pAKT under BRAFi (PLX4720) treatment in six V600E BRAF melanoma cell lines. […] However, whereas the activation of both ERK and AKT by HGF under PLX4720 treatment was long lasting, the activation of either ERK or AKT by the above cytokines was only transient and thus could not confer resistance to the melanoma cell lines.

[2] = system: six V600E BRAF melanoma cell lines; assay: Screening of recombinant RTK ligands for ability to confer resistance to BRAFi (PLX4720) or MEKi (PD184352) (Table 4); type: cell-based, human; set-up: ability of recombinant RTK ligand to confer resistance / ability of recombinant RTK ligand to confer resistance (screening value): scale not given here
How it was run: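 Six V600E BRAF melanoma lines treated with PLX4720 or PD184352 after addition of 22 recombinant RTK ligands, scored for drug resistance. Activation of selected RTKs confirmed by western blotting and high-throughput tyrosine kinase phosphorylation profiling.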

insulin: RTK ligand (INSR), cytokine tested
re-activation of pERK/pAKT [1]: only reactivate AKT
ability of recombinant RTK ligand to confer resistance ([2]; A2058, PD184352 - 1 uM, ligand 156.25 ng/ml): 0.98
ability of recombinant RTK ligand to confer resistance ([2]; A2058, PD184352 - 1 uM, ligand 625 ng/ml): 0.99
ability of recombinant RTK ligand to confer resistance ([2]; A2058, PD184352 - 1 uM, ligand 2500 ng/ml): 1.14
ability of recombinant RTK ligand to confer resistance ([2]; A2058, PD184352 - 1 uM, ligand 10000 ng/ml): 1.03
ability of recombinant RTK ligand to confer resistance ([2]; A2058, PD184352 - 1 uM, ligand 40000 ng/ml): 1.06
ability of recombinant RTK ligand to confer resistance ([2]; A2058, PLX4720 - 2 uM, ligand 156.25 ng/ml): 0.98
ability of recombinant RTK ligand to confer resistance ([2]; A2058, PLX4720 - 2 uM, ligand 625 ng/ml): 0.96
ability of recombinant RTK ligand to confer resistance ([2]; A2058, PLX4720 - 2 uM, ligand 2500 ng/ml): 1.12
ability of recombinant RTK ligand to confer resistance ([2]; A2058, PLX4720 - 2 uM, ligand 10000 ng/ml): 1.02
ability of recombinant RTK ligand to confer resistance ([2]; A2058, PLX4720 - 2 uM, ligand 40000 ng/ml): 1.11
ability of recombinant RTK ligand to confer resistance ([2]; C32, PD184352 - 1 uM, ligand 156.25 ng/ml): 1.09
ability of recombinant RTK ligand to confer resistance ([2]; C32, PD184352 - 1 uM, ligand 625 ng/ml): 1.08
ability of recombinant RTK ligand to confer resistance ([2]; C32, PD184352 - 1 uM, ligand 2500 ng/ml): 1.20
ability of recombinant RTK ligand to confer resistance ([2]; C32, PD184352 - 1 uM, ligand 10000 ng/ml): 1.08
ability of recombinant RTK ligand to confer resistance ([2]; C32, PD184352 - 1 uM, ligand 40000 ng/ml): 1.04
ability of recombinant RTK ligand to confer resistance ([2]; C32, PLX4720 - 2 uM, ligand 156.25 ng/ml): 1.14
ability of recombinant RTK ligand to confer resistance ([2]; C32, PLX4720 - 2 uM, ligand 625 ng/ml): 1.05
ability of recombinant RTK ligand to confer resistance ([2]; C32, PLX4720 - 2 uM, ligand 2500 ng/ml): 1.20
ability of recombinant RTK ligand to confer resistance ([2]; C32, PLX4720 - 2 uM, ligand 10000 ng/ml): 1.02
ability of recombinant RTK ligand to confer resistance ([2]; C32, PLX4720 - 2 uM, ligand 40000 ng/ml): 1.04
ability of recombinant RTK ligand to confer resistance ([2]; Colo 829, PD184352 - 1 uM, ligand 156.25 ng/ml): 0.91
ability of recombinant RTK ligand to confer resistance ([2]; Colo 829, PD184352 - 1 uM, ligand 625 ng/ml): 0.98
ability of recombinant RTK ligand to confer resistance ([2]; Colo 829, PD184352 - 1 uM, ligand 2500 ng/ml): 0.98
ability of recombinant RTK ligand to confer resistance ([2]; Colo 829, PD184352 - 1 uM, ligand 10000 ng/ml): 1.02
ability of recombinant RTK ligand to confer resistance ([2]; Colo 829, PD184352 - 1 uM, ligand 40000 ng/ml): 1.02
ability of recombinant RTK ligand to confer resistance ([2]; Colo 829, PLX4720 - 2 uM, ligand 156.25 ng/ml): 0.91
ability of recombinant RTK ligand to confer resistance ([2]; Colo 829, PLX4720 - 2 uM, ligand 625 ng/ml): 0.93
ability of recombinant RTK ligand to confer resistance ([2]; Colo 829, PLX4720 - 2 uM, ligand 2500 ng/ml): 0.97
ability of recombinant RTK ligand to confer resistance ([2]; Colo 829, PLX4720 - 2 uM, ligand 10000 ng/ml): 1.01
ability of recombinant RTK ligand to confer resistance ([2]; Colo 829, PLX4720 - 2 uM, ligand 40000 ng/ml): 1.00
ability of recombinant RTK ligand to confer resistance ([2]; G-361, PD184352 - 1 uM, ligand 156.25 ng/ml): 0.98
ability of recombinant RTK ligand to confer resistance ([2]; G-361, PD184352 - 1 uM, ligand 625 ng/ml): 0.91
ability of recombinant RTK ligand to confer resistance ([2]; G-361, PD184352 - 1 uM, ligand 2500 ng/ml): 1.01
ability of recombinant RTK ligand to confer resistance ([2]; G-361, PD184352 - 1 uM, ligand 10000 ng/ml): 0.98
ability of recombinant RTK ligand to confer resistance ([2]; G-361, PD184352 - 1 uM, ligand 40000 ng/ml): 0.97
ability of recombinant RTK ligand to confer resistance ([2]; G-361, PLX4720 - 2 uM, ligand 156.25 ng/ml): 0.92
ability of recombinant RTK ligand to confer resistance ([2]; G-361, PLX4720 - 2 uM, ligand 625 ng/ml): 0.88
ability of recombinant RTK ligand to confer resistance ([2]; G-361, PLX4720 - 2 uM, ligand 2500 ng/ml): 0.98
ability of recombinant RTK ligand to confer resistance ([2]; G-361, PLX4720 - 2 uM, ligand 10000 ng/ml): 0.96
ability of recombinant RTK ligand to confer resistance ([2]; G-361, PLX4720 - 2 uM, ligand 40000 ng/ml): 0.99
ability of recombinant RTK ligand to confer resistance ([2]; SK-MEL-5, PD184352 - 1 uM, ligand 156.25 ng/ml): 1.20
ability of recombinant RTK ligand to confer resistance ([2]; SK-MEL-5, PD184352 - 1 uM, ligand 625 ng/ml): 1.24
ability of recombinant RTK ligand to confer resistance ([2]; SK-MEL-5, PD184352 - 1 uM, ligand 2500 ng/ml): 1.30
ability of recombinant RTK ligand to confer resistance ([2]; SK-MEL-5, PD184352 - 1 uM, ligand 10000 ng/ml): 1.28
ability of recombinant RTK ligand to confer resistance ([2]; SK-MEL-5, PD184352 - 1 uM, ligand 40000 ng/ml): 1.66
ability of recombinant RTK ligand to confer resistance ([2]; SK-MEL-5, PLX4720 - 2 uM, ligand 156.25 ng/ml): 1.10
ability of recombinant RTK ligand to confer resistance ([2]; SK-MEL-5, PLX4720 - 2 uM, ligand 625 ng/ml): 1.18
ability of recombinant RTK ligand to confer resistance ([2]; SK-MEL-5, PLX4720 - 2 uM, ligand 2500 ng/ml): 1.27
ability of recombinant RTK ligand to confer resistance ([2]; SK-MEL-5, PLX4720 - 2 uM, ligand 10000 ng/ml): 1.26
ability of recombinant RTK ligand to confer resistance ([2]; SK-MEL-5, PLX4720 - 2 uM, ligand 40000 ng/ml): 1.43
ability of recombinant RTK ligand to confer resistance ([2]; SK-MEL-28, PD184352 - 1 uM, ligand 156.25 ng/ml): 1.01
ability of recombinant RTK ligand to confer resistance ([2]; SK-MEL-28, PD184352 - 1 uM, ligand 625 ng/ml): 0.97
ability of recombinant RTK ligand to confer resistance ([2]; SK-MEL-28, PD184352 - 1 uM, ligand 2500 ng/ml): 1.06
ability of recombinant RTK ligand to confer resistance ([2]; SK-MEL-28, PD184352 - 1 uM, ligand 10000 ng/ml): 1.13
ability of recombinant RTK ligand to confer resistance ([2]; SK-MEL-28, PD184352 - 1 uM, ligand 40000 ng/ml): 1.11
ability of recombinant RTK ligand to confer resistance ([2]; SK-MEL-28, PLX4720 - 2 uM, ligand 156.25 ng/ml): 1.02
ability of recombinant RTK ligand to confer resistance ([2]; SK-MEL-28, PLX4720 - 2 uM, ligand 625 ng/ml): 0.95
ability of recombinant RTK ligand to confer resistance ([2]; SK-MEL-28, PLX4720 - 2 uM, ligand 2500 ng/ml): 0.99
ability of recombinant RTK ligand to confer resistance ([2]; SK-MEL-28, PLX4720 - 2 uM, ligand 10000 ng/ml): 1.05
ability of recombinant RTK ligand to confer resistance ([2]; SK-MEL-28, PLX4720 - 2 uM, ligand 40000 ng/ml): 1.05
